Experimental data reported in paper PMC6748986, “Potent modulation of the CepR quorum sensing receptor and virulence in a Burkholderia cepacia complex member using non-native lactone ligands” (Scientific Reports, 2019).
Where “and” joins values, the source holds several entries; their conditions need not be identical. Identical values can stand only once.

How the values were obtained:
CepR [1] = target: T1, CepR (Burkholderia cenocepacia, UniProt B4EMD0); assay: CepR agonism in E. coli β-galactosidase reporter (Ec-reporter) JLD271 [pJN105-cepR + pSC11-cepI]; format: cell-based, B. cenocepacia; settings: for EC50 / EC50 (nM): agonism dose-response; for Act% / activation at 100 µM: Table S2, Ec-reporter, screening conc. 100 μM; for Emax: read-out: Maximal Activation (%)
T1 sequence (B4EMD0 1-239): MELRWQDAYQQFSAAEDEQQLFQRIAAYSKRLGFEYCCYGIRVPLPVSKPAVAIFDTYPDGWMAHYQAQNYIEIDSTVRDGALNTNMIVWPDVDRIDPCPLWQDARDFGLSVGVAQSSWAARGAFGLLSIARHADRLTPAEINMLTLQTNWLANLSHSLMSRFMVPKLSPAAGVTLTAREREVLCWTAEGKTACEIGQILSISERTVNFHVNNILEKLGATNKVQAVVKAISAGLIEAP
Outline: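 E. coli JLD271 (ΔsdiA) carrying arabinose-inducible CepR (27 mM L-arabinose) and cepI-lacZ fusion, grown 4 h with compound; β-galactosidase measured by CPRG cleavage at 37 °C (~30 min), normalized to OD600. Agonism compared with C8-AHL at 100 μM; screen at 100 μM or solubility limit, then dose-response; ≥3 trials.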

CepR [2] = target: T1, CepR; assay: CepR antagonism in E. coli β-galactosidase reporter (Ec-reporter), competition against C8-AHL; format: cell-based, B. cenocepacia; settings: against 10 nM C8-AHL; for IC50 / Maximal Inhibition (%): Ec-reporter; for inhibition at 100 µM: read-out: Inh% (100-Act%)
Outline: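 CepR antagonism was measured in E. coli JLD271 (∆sdiA) carrying pJN105-cepR, which expresses B. cenocepacia CepR from an arabinose-inducible pBAD promoter, and pSC11-cepI, which fuses lacZ to the cepI promoter. Induced cells were grown 4 h with compound and 10 nM C8-AHL. β-Galactosidase activity was then read by CPRG cleavage at 37 °C after Z Buffer permeabilization.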

B. multivorans ATCC17616 = assay: Swimming motility assay (0.3% agar); format: cell-based; settings: 50 μM compound, 72 h, untreated = 100%
Method: We were interested to assess the effects of our lead CepR modulators on a phenotype under the control of QS in B. multivorans. However, very little work has been reported to directly link CepR activity in B. multivorans to any QS-controlled phenotype. […] Therefore, we chose to study the effects of compound treatment on both the swarming and swimming motility of B. multivorans (B. multivorans ATCC17616; see Methods).
Figure 3 B. multivorans motility assay data. Swimming motility was measured by spotting B. multivorans plus compound indicated in the center of M9 + 0.1% casamino acids + 0.3% agar in a 10 cm diameter petri dish. Area of the colony after 72 h incubation was calculated using ImageJ, normalized to the B. multivorans wild-type + vehicle (DMSO), and listed above each plate shown. TEXT PRINTED IN THE PICTURE: C8-AHL: 182% | E32: 195% | E35: 175% | E37: 173% | DMSO: 100% | A12: 55% | B12: 53% | E3: 58%
The motility assay was based on a previously reported procedure. B. multivorans was grown overnight with 50 μM compound at 37 °C and normalized to OD600 = 0.4, and then cells were washed with sterile water and resuspended with 50 μM fresh compound. Cells (5 μL) were spotted in the center of M9 + 0.1% Casamino Acids + 0.3% agar plates (100 mm diameter). Cells were grown for 72 h at 37 °C. Images were analyzed using ImageJ to calculate the area of the colony and normalized to the area of B. multivorans wild-type + vehicle (DMSO).

[3] = Ec-reporter, activity for 100 μM C8-AHL set to 100%, error ±10%
[4] = Table S3, Ec-reporter, screening conc. 100 μM

Row | Structure (SMILES) | EC50 (CepR [1]; Ec-reporter) | Maximal Activation (%) (CepR [1]; [3]) | Act% (CepR [1]) [%] | Inh% (100-Act%) (CepR [2]; [4]) [%] | CepR agonism in words (CepR [1]; Ec-reporter) | Emax (CepR [1]; [3]) [%] | activation at 100 µM (CepR [1]) [%] | IC50 (CepR [2]) [nM] | Maximal Inhibition (%) (CepR [2]) | Swimming motility, area of the colony normalized to B. multivorans wild-type + vehicle (DMSO) (B. multivorans ATCC17616) [%] | EC50 fold higher in the Ec-reporter than in the Bm-reporter (CepR [1]; Ec- vs Bm-reporter) | inhibition at 100 µM (CepR [2]; [4]) [%] | EC50 (nM) (CepR [1]; Ec-reporter)
1 | CCCCCC(O)CC(=O)N[C@H]1CCOC1=O (some centres unmarked) [3’OH-C8-AHL, reference compound] | 210 nM | 84 | 84 | -20 |  |  |  |  |  |  |  |  | 
2 | CCCCCCCS(=O)(=O)N[C@H]1CCOC1=O [Compound A12] |  |  |  |  | failed to activate CepR | 46 | 46 | 380 | 68 | 55 |  |  | 
3 | O=C(CC1CCCC1)N[C@H]1CCOC1=O [Compound B12] |  |  |  |  |  |  | 39 | 3700 | 69 | 53 |  |  | 
4 | CCCCCCCC(=O)N[C@H]1CCOC1=O [Compound C8-AHL, N-octanoyl L-homoserine lactone, reference compound] | 5 nM and 5.7 nM |  |  |  |  | 100 | 100 |  |  | 182 | ~ 10 fold | -30 | 
5 | O=C(Cc1cccc(Br)c1)N[C@H]1CCOC1=O [Compound C8] |  |  | 12 |  |  |  |  | 2700 | 79 |  |  |  | 
6 | O=C(Cc1cccc(C(F)(F)F)c1)N[C@H]1CCOC1=O [Compound E3] |  |  |  |  |  |  | 6.6 | 3300 | 77 | 58 |  |  | 
7 | O=C(CCc1ccc(I)cc1)N[C@H]1CCOC1=O [Compound E32] | 1.1 nM |  |  |  |  | 97 | 97 |  |  | 195 |  | -20 | 
8 | O=C(CCc1ccc(C(F)(F)F)cc1)N[C@H]1CCOC1=O [Compound E35] | 0.18 nM |  |  |  |  | 100 | 100 |  |  | 175 |  | -50 | sub-nanomolar
9 | O=C(CCc1ccc([N+](=O)[O-])cc1)N[C@H]1CCOC1=O [Compound E37] | 0.19 nM |  |  |  |  | 95 | 95 |  |  | 173 |  | -30 | sub-nanomolar
